The source of these data is patent US10507218B2, “Treatment of cardiovascular disease by using gallium compounds to bind calcified lesions” (LIPIDRISK, LLC, priority 2018, dated 2019).

Experiment [1] in a line: Treatment of plantar fasciitis by topical gallium nitrate solution (single patient). Format: in vivo, human. Here is the method:
The patient was having continuous severe pain from the plantar fasciitis for over six months after treatments with injected cortisone, special braces and hydrotherapy none of which gave relief.
Patient was treated with 5 ml's of 14% gallium nitrate solution applied to the bottom of the affected foot for 30 minutes every other day for three treatments. After each treatment the remaining solution was washed off and the exact amount of absorbed gallium nitrate was not measured. […] The plantar fasciitis has not returned for 10 years. The pain elimination from reduced inflammation is an indicator that the gallium ions bonded to the calcified structures at an inflammation site.

The nature of experiment [2]: Treatment of rheumatoid arthritis of the wrist by topical gallium nitrate solution (single patient). Format: in vivo, human. Conditions: about 100 mg. Here is the method: Patient had persistent rheumatoid arthritis of the wrist for over six months and was treated with a single dose of ¾ ml of 14% gallium nitrate solution, about 100 mg, as a topical application for one hour. […] Again, the pain elimination from reduced inflammation is an indicator that the gallium ions bonded to the calcified structures at an inflammation site.

On the set-up of experiment [3]: dose or concentration left out as unconfirmed. Conditions: of gallium nitrate over 5-7 days; cited from earlier work.
For experiment [4] the following is noted: animal studies; cited from earlier work.

Where only a bound is given, the exact number is not on record here.

With `O=[N+]([O-])[O-].O=[N+]([O-])[O-].O=[N+]([O-])[O-].[Ga+3]` [gallium nitrate], the “pain relief after each treatment” value in experiment [1] (5 ml of 14% gallium nitrate solution on bottom of affected foot, 30 minutes, every other day, three treatments) is recorded as “complete relief of pain for several hours after each treatment”. Moreover, in experiment [1] (after three topical treatments), the “time without return of plantar fasciitis” value is reported as not below 10 years. In experiment [1] (one week after third topical treatment), the “pain outcome after the third treatment” value is listed as “the pain disappeared completely one week later”. For the same compound, in experiment [2] (single topical dose of ¾ ml of 14% gallium nitrate solution, one hour), the immediate pain relief result is “Some pain relief was noticed immediately”. For the same compound, in experiment [2] (single topical dose), the “arthritic pain after two months” value was “the arthritic pain was not noticeable” and the “duration without arthritic pain in the wrist” value was “has not experienced arthritic pain in the wrist for two years”. For the same compound, in experiment [3], the “reduction of calcium excretion” value is listed as 70+18%. For the same compound, the “carbonyl oxidation and protein nitration” value in experiment [4] was “reduction of carbonyl oxidation and protein nitration”.
